In patent US8372967B2, “Compounds and methods for modulating expression of GCCR” (Isis Pharmaceuticals, Inc., priority 2006, dated 2013):
Strand notation (5' to 3'): a small letter for the sugar, then the base; units joined by * are phosphorothioate-linked, units joined directly phosphodiester-linked; [ ] holds rarer units or linkages, { } end groups; capitals alone tell only the bases. e = 2'-O-(2-methoxyethyl) (MOE); [5mC] = 5-methylcytosine; d = 2'-deoxy (DNA)

Tests used:
[1] = Triglyceride, cholesterol and glucose levels, pre-bleed and post-bleed, GCGR study (Table 34); format: in vivo, mouse; conditions: C57/BL6 mice, 48 hours after single i.p. dose
Procedure: Eight-week old male C57/BL6 mice (Jackson Laboratory, Bar Harbor, Me.) were administered a single dose of GCGR oligonucleotide by intraperitoneal injection at a concentration of […]. Each dose group consisted of four animals. Shown in Table 31 are the sequences, motifs and conjugates of the GCGR antisense compounds used in this study. Bolded residues indicate 2′-O-methoxyethyl (2′-MOE) moieties. All compounds comprise phosphorothioate internucleoside linkages throughout and each cytosine is replaced with 5-methylcytosine. ISIS 386626, ISIS 386627 and ISIS 386628 further comprise a C16 conjugate group attached to the 2′-O position of the sugar via a diamide linkage (2′-OCH2C(═O)N(H)(CH2)4N(H)C(═O)—(CH2)15CH3). GCGR antisense compounds target published GCGR sequences, including Genbank® Accession No. BC031885.1 (SEQ ID NO: 7).
Mice were sacrificed 48 hours following injection to determine serum transaminase levels (Table 32); liver, white adipose tissue (WAT), spleen and kidney weight (Table 33); cholesterol, triglyceride and glucose levels (Table 34); GCGR mRNA levels (Tables 35-41); and full-length and total oligonucleotide concentration in liver and kidney (Table 42). Endpoints were assessed using methods described herein and well known to those of ordinary skill in the art. Data is included from a pre-treatment bleed (Pre-Bleed) and post-treatment bleed (Post-Bleed).

PTP1B mRNA = assay: Dose response for human PTP1B in HuVEC cells, PPS 198 and PPS 3000 (Tables 86, 87); format: cell-based
Procedure: Human vascular endothelial (HuVEC) cells were plated at a density of 5000 cells per well and treated as described herein with nM concentrations of short antisense compound as indicated in Table 86. After the treatment period, RNA was isolated from the cells and PTP1B mRNA levels were measured by quantitative real-time PCR, as described herein. PTP1B mRNA levels were adjusted according to total RNA content as measured by RIBOGREEN®. Two different human PTP1B primer probe sets were used to measure mRNA levels. Results with Primer Probe Set (PPS) 198 are shown in Table 86, and results with Primer Probe Set (PPS) 3000 are shown in Table 87. Results are presented as percent inhibition of PTP1B mRNA expression relative to untreated control cells.

Row | Substance | Glucose levels (post-bleed) [1] | % Inhibition (PTP1B mRNA; PPS 198, 1.11 nM) | % Inhibition (PTP1B mRNA; PPS 198, 3.33 nM) | % Inhibition (PTP1B mRNA; PPS 198, 10.0 nM) | % Inhibition (PTP1B mRNA; PPS 198, 30.0 nM) | % Inhibition (PTP1B mRNA; PPS 3000, 1.11 nM) | % Inhibition (PTP1B mRNA; PPS 3000, 3.33 nM) | % Inhibition (PTP1B mRNA; PPS 3000, 10.0 nM) | % Inhibition (PTP1B mRNA; PPS 3000, 30.0 nM)
1 | ISIS 386628: GCGR short antisense compound with C16 conjugate group at 2′-O via diamide linkage (TGTCTTGCTGCTTT; chemistry not fully specified) | decrease in post-bleed glucose levels |  |  |  |  |  |  |  | 
2 | 398112 (e[5mC]*eA*dG*d[5mC]*d[5mC]*dT*dG*dG*d[5mC]*dA*d[5mC]*d[5mC]*eT*eA) [compound 398112] |  | 1% | 10% | 73% | 93% | 0% | 26% | 77% | 94%
3 | 399113 (eG*eT*dT*dA*dG*dG*d[5mC]*dA*dA*dA*dG*dG*eG*e[5mC]; antisense) [compound 399113] |  | 0% | 31% | 72% | 90% | 0% | 9% | 65% | 90%
4 | 399276 (eG*eA*dG*dG*dT*dA*dT*d[5mC]*d[5mC]*d[5mC]*dA*dT*e[5mC]*eT; antisense) [compound 399276] |  | 0% | 8% | 61% | 89% | 0% | 14% | 64% | 86%
5 | 399132 (eG*eG*dG*d[5mC]*dT*dG*dA*dG*dT*dG*dA*d[5mC]*e[5mC]*e[5mC]; antisense) [compound 399132] |  | 0% | 32% | 75% | 95% | 0% | 26% | 76% | 91%
6 | 398120 (eG*eT*dT*d[5mC]*dA*dA*dG*d[5mC]*dG*dG*d[5mC]*d[5mC]*eT*eA) [compound 398120] |  | 0% | 31% | 80% | 96% | 0% | 35% | 79% | 93%
7 | 398105 (eT*eG*d[5mC]*dA*d[5mC]*dA*dG*dG*d[5mC]*dA*dG*dG*eT*eT) [compound 398105] |  | 0% | 25% | 79% | 90% | 0% | 35% | 79% | 93%
